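Cells were grown in 96-well plates and exposed to each compound for 48 hours at five concentrations; endpoints were interpolated linearly between bracketing concentrations, or set to the highest concentration if not reached. GI50 is the concentration that inhibits growth by half.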 The source made the active and inactive calls. Cut-off read from the data, not from the text of the source: active = GI50 up to about 1.1 µM and inactive = higher.
Columns and labels:
Assay in all cases: DTP human tumour cell line panel, 48 h
[1] = tested on: SW-620
[2] = tested on: SK-MEL-28
[3] = tested on: RXF 393
[4] = tested on: EKVX
[5] = tested on: SK-MEL-5
[6] = tested on: UACC-62
[7] = tested on: KM12
[8] = tested on: A498
[9] = tested on: CCRF-CEM
[10] = tested on: SN12C
[11] = tested on: HT-29
[12] = tested on: CAKI-1
[13] = tested on: BT-549
[14] = tested on: DU-145
[15] = tested on: NCI-H23
[16] = tested on: RPMI-8226
[17] = tested on: SNB-19
[18] = tested on: HCT-116
[19] = tested on: MDA-MB-231
[20] = tested on: LOX IMVI
[21] = tested on: SK-OV-3
[22] = tested on: Malme-3M
[23] = tested on: 786-0
[24] = tested on: HL-60
[25] = tested on: NCI/ADR-RES
[26] = tested on: IGROV-1
[27] = tested on: MCF7
[28] = tested on: HOP-62
[29] = tested on: HCT-15
[30] = tested on: NCI-H460
[31] = tested on: COLO 205
[32] = tested on: MDA-N
[33] = tested on: UACC-257
[34] = tested on: SF-539
[35] = tested on: SNB-75
[36] = tested on: NCI-H226
[37] = tested on: PC-3
[38] = tested on: OVCAR-3
[39] = tested on: MOLT-4
[40] = tested on: ACHN
[41] = tested on: M14
[42] = tested on: K562
[43] = tested on: SK-MEL-2
[44] = tested on: SR
[45] = tested on: TK-10
[46] = tested on: Hs-578T
[47] = tested on: SF-295
[48] = tested on: MDA-MB-435
[49] = tested on: OVCAR-8
[50] = tested on: SF-268
[51] = tested on: OVCAR-5
[52] = tested on: U-251
[53] = tested on: A549
[54] = tested on: NCI-H522
[55] = tested on: UO-31
[56] = tested on: HCC 2998

In the case of `Cn1c(=O)sc2cc(C(=S)N3CCN(c4ccccc4)CC3)ccc21`, the GI50 [1] was > 100 µM (inactive), the GI50 [2] was 97.1 µM (inactive) and the GI50 [3] was 30.5 µM (inactive). For the same compound, the GI50 [4] was 44.3 µM (inactive), the GI50 [5] was > 100 µM (inactive) and the GI50 [6] was 31.8 µM (inactive). For the same compound, the GI50 [7] was > 100 µM (inactive), the GI50 [8] was > 100 µM (inactive) and the GI50 [9] was 40.7 µM (inactive). The GI50 [10] was 50.6 µM (inactive), the GI50 [11] was > 100 µM (inactive) and the GI50 [12] was > 100 µM (inactive). For the same compound, the GI50 [13] was 60.7 µM (inactive), the GI50 [14] was > 100 µM (inactive) and the GI50 [15] was 34.1 µM (inactive). The GI50 [16] was > 100 µM (inactive), the GI50 [17] was 45.3 µM (inactive) and the GI50 [18] was 85.5 µM (inactive). For the same compound, the GI50 [19] was 27.6 µM (inactive), the GI50 [20] was 53.5 µM (inactive) and the GI50 [21] was 32.3 µM (inactive). The GI50 [22] was 42.3 µM (inactive), the GI50 [23] was 44 µM (inactive) and the GI50 [24] was 33.6 µM (inactive). For the same compound, the GI50 [25] was 50 µM (inactive), the GI50 [26] was 46.5 µM (inactive) and the GI50 [27] was 64.3 µM (inactive). The GI50 [28] was 18.5 µM (inactive), the GI50 [29] was 39.4 µM and the GI50 [30] was 51.9 µM (inactive). For the same compound, the GI50 [31] was > 100 µM (inactive), the GI50 [32] was > 100 µM (inactive) and the GI50 [33] was > 100 µM (inactive). The GI50 [34] was 24.4 µM (inactive), the GI50 [35] was 28.7 µM (inactive) and the GI50 [36] was 55.3 µM (inactive). For the same compound, the GI50 [37] was 31.3 µM (inactive), the GI50 [38] was 54.8 µM (inactive) and the GI50 [39] was > 100 µM (inactive). For the same compound, the GI50 [40] was 70.3 µM (inactive), the GI50 [41] was > 100 µM (inactive) and the GI50 [42] was > 100 µM (inactive). The GI50 [43] was 56 µM (inactive), the GI50 [44] was 6.67 µM (inactive) and the GI50 [45] was 71.9 µM (inactive). For the same compound, the GI50 [46] was 55.8 µM (inactive), the GI50 [47] was 19.9 µM (inactive) and the GI50 [48] was > 100 µM (inactive). The GI50 [49] was 38.4 µM (inactive), the GI50 [50] was 29.9 µM (inactive) and the GI50 [51] was 97.1 µM (inactive). The GI50 [52] was 16 µM (inactive).
`NC(=O)C1Cc2cc3c(cc21)OCO3` (stereo not given) was tested, and the GI50 [3] was > 100 µM (inactive), the GI50 [4] was > 100 µM (inactive) and the GI50 [5] was > 100 µM (inactive). For the same compound, the GI50 [6] was > 100 µM (inactive), the GI50 [7] was > 100 µM (inactive) and the GI50 [11] was > 100 µM (inactive). The GI50 [12] was > 100 µM (inactive), the GI50 [13] was > 100 µM (inactive) and the GI50 [14] was > 100 µM (inactive). The GI50 [15] was > 100 µM (inactive), the GI50 [53] was > 100 µM (inactive) and the GI50 [17] was > 100 µM (inactive). For the same compound, the GI50 [18] was > 100 µM (inactive), the GI50 [19] was > 100 µM (inactive) and the GI50 [20] was > 100 µM (inactive). The GI50 [21] was > 100 µM (inactive), the GI50 [22] was > 100 µM (inactive) and the GI50 [23] was > 100 µM (inactive). For the same compound, the GI50 [25] was > 100 µM (inactive), the GI50 [26] was > 100 µM (inactive) and the GI50 [27] was > 100 µM (inactive). The GI50 [28] was > 100 µM (inactive), the GI50 [29] was greater than 100 µM and the GI50 [30] was > 100 µM (inactive). For the same compound, the GI50 [31] was > 100 µM (inactive), the GI50 [32] was > 100 µM (inactive) and the GI50 [33] was > 100 µM (inactive). The GI50 [34] was > 100 µM (inactive), the GI50 [35] was > 100 µM (inactive) and the GI50 [36] was > 100 µM (inactive). The GI50 [37] was > 100 µM (inactive), the GI50 [38] was > 100 µM (inactive) and the GI50 [40] was > 100 µM (inactive). For the same compound, the GI50 [54] was > 100 µM (inactive), the GI50 [55] was > 100 µM (inactive) and the GI50 [41] was > 100 µM (inactive). For the same compound, the GI50 [56] was > 100 µM (inactive), the GI50 [45] was > 100 µM (inactive) and the GI50 [46] was > 100 µM (inactive). The GI50 [47] was > 100 µM (inactive), the GI50 [49] was > 100 µM (inactive) and the GI50 [50] was > 100 µM (inactive). For the same compound, the GI50 [51] was > 100 µM (inactive).
